Data from PubChem BioAssay (NCI).
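Method: 48-hour compound exposure of cells in 96-well plates, five concentrations, linear interpolation of endpoints. GI50 is the concentration that inhibits growth by half. TGI denotes the concentration required for complete inhibition of growth.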

What was measured:
Experiment in all cases: NCI tumour cell line growth inhibition, 48 h
SF-539 CNS = system: SF-539 CNS
SNB-75 CNS = system: SNB-75 CNS
M14 melanoma = system: M14 melanoma
U251 CNS = system: U251 CNS
SW-620 colon = system: SW-620 colon
UO-31 renal = system: UO-31 renal
UACC-257 melanoma = system: UACC-257 melanoma
SF-295 CNS = system: SF-295 CNS
A498 renal = system: A498 renal
KM12 colon = system: KM12 colon
HCT-116 colon = system: HCT-116 colon
MALME-3M melanoma = system: MALME-3M melanoma
NCI-H460 lung = system: NCI-H460 lung
A549 NSCLC = system: A549 NSCLC
NCI/ADR-RES ovarian = system: NCI/ADR-RES ovarian
MDA-MB-435 = system: MDA-MB-435
OVCAR-5 ovarian = system: OVCAR-5 ovarian
CAKI-1 renal = system: CAKI-1 renal
MCF7 breast = system: MCF7 breast
HCC-2998 colon = system: HCC-2998 colon
K-562 leukemia = system: K-562 leukemia
UACC-62 melanoma = system: UACC-62 melanoma
786-0 renal = system: 786-0 renal
SF-268 CNS = system: SF-268 CNS
SK-MEL-28 melanoma = system: SK-MEL-28 melanoma
SK-MEL-2 melanoma = system: SK-MEL-2 melanoma
OVCAR-8 ovarian = system: OVCAR-8 ovarian
HT29 colon = system: HT29 colon
EKVX NSCLC = system: EKVX NSCLC
RXF 393 renal = system: RXF 393 renal
CCRF-CEM leukemia = system: CCRF-CEM leukemia
HL-60(TB) leukemia = system: HL-60(TB) leukemia
COLO 205 colon = system: COLO 205 colon
HOP-62 NSCLC = system: HOP-62 NSCLC
T-47D breast = system: T-47D breast
HCT-15 colon = system: HCT-15 colon
SK-OV-3 ovarian = system: SK-OV-3 ovarian
OVCAR-4 ovarian = system: OVCAR-4 ovarian
RPMI-8226 leukemia = system: RPMI-8226 leukemia
SNB-19 CNS = system: SNB-19 CNS
HS 578T breast = system: HS 578T breast
LOX IMVI melanoma = system: LOX IMVI melanoma
NCI-H23 lung = system: NCI-H23 lung
SK-MEL-5 melanoma = system: SK-MEL-5 melanoma
NCI-H226 lung = system: NCI-H226 lung
PC-3 prostate = system: PC-3 prostate
HOP-92 NSCLC = system: HOP-92 NSCLC
ACHN renal = system: ACHN renal
SN12C renal = system: SN12C renal
MDA-MB-231 breast = system: MDA-MB-231 breast
TK-10 renal = system: TK-10 renal
DU-145 prostate = system: DU-145 prostate
BT-549 breast = system: BT-549 breast
NCI-H522 lung = system: NCI-H522 lung
IGROV1 ovarian = system: IGROV1 ovarian

What does the source list for `C#Cc1nc(/C=C/C(=O)NO)cs1`?
GI50 (SF-539 CNS): 1.62 µM; TGI (SF-539 CNS): 3.12 µM; GI50 (SNB-75 CNS): 1.11 µM; TGI (SNB-75 CNS): 2.56 µM; GI50 (M14 melanoma): 3.15 µM; TGI (M14 melanoma): 15 µM; GI50 (U251 CNS): 2.44 µM; TGI (U251 CNS): 6.84 µM; GI50 (SW-620 colon): 2.07 µM; TGI (SW-620 colon): 5.08 µM; GI50 (UO-31 renal): 0.182 µM; TGI (UO-31 renal): 0.341 µM; GI50 (UACC-257 melanoma): 1.55 µM; TGI (UACC-257 melanoma): 11 µM; GI50 (SF-295 CNS): 1.91 µM; TGI (SF-295 CNS): 3.56 µM; GI50 (A498 renal): 1.8 µM; TGI (A498 renal): 3.66 µM; GI50 (KM12 colon): 3.51 µM; TGI (KM12 colon): 14.5 µM; GI50 (HCT-116 colon): 1.56 µM; TGI (HCT-116 colon): 3.58 µM; GI50 (MALME-3M melanoma): 1.29 µM; TGI (MALME-3M melanoma): 2.85 µM; GI50 (NCI-H460 lung): 3.15 µM; TGI (NCI-H460 lung): 19.4 µM; GI50 (A549 NSCLC): 3.89 µM; TGI (A549 NSCLC): 22.5 µM; GI50 (NCI/ADR-RES ovarian): 1.15 µM; TGI (NCI/ADR-RES ovarian): 34.1 µM; GI50 (MDA-MB-435): 3.7 µM; TGI (MDA-MB-435): 15.9 µM; GI50 (OVCAR-5 ovarian): 2.34 µM; TGI (OVCAR-5 ovarian): 6.11 µM; GI50 (CAKI-1 renal): 1.72 µM; TGI (CAKI-1 renal): 3.24 µM; GI50 (MCF7 breast): 3.27 µM; TGI (MCF7 breast): 19.6 µM; GI50 (HCC-2998 colon): 12.7 µM; TGI (HCC-2998 colon): 26.1 µM; GI50 (K-562 leukemia): 3.01 µM; TGI (K-562 leukemia): 12.8 µM; GI50 (UACC-62 melanoma): 2.14 µM; TGI (UACC-62 melanoma): 8.56 µM; GI50 (786-0 renal): 0.211 µM; TGI (786-0 renal): 0.427 µM; GI50 (SF-268 CNS): 2.24 µM; TGI (SF-268 CNS): 5.08 µM; GI50 (SK-MEL-28 melanoma): 4.02 µM; TGI (SK-MEL-28 melanoma): 33.7 µM; GI50 (SK-MEL-2 melanoma): 4.58 µM; TGI (SK-MEL-2 melanoma): 17.6 µM; GI50 (OVCAR-8 ovarian): 2.24 µM; TGI (OVCAR-8 ovarian): 11.5 µM; GI50 (HT29 colon): 2.34 µM; TGI (HT29 colon): 5.7 µM; GI50 (EKVX NSCLC): 2.25 µM; TGI (EKVX NSCLC): 5.07 µM; GI50 (RXF 393 renal): 1.25 µM; TGI (RXF 393 renal): 2.91 µM; GI50 (CCRF-CEM leukemia): 0.414 µM; TGI (CCRF-CEM leukemia): 1.95 µM; GI50 (HL-60(TB) leukemia): 1.66 µM; TGI (HL-60(TB) leukemia): 4.09 µM; GI50 (COLO 205 colon): 4.17 µM; TGI (COLO 205 colon): 14.9 µM; GI50 (HOP-62 NSCLC): 2.76 µM; TGI (HOP-62 NSCLC): 15 µM; GI50 (T-47D breast): 2.17 µM; TGI (T-47D breast): 7.44 µM; GI50 (HCT-15 colon): 2.98 µM; TGI (HCT-15 colon): 14.9 µM; GI50 (SK-OV-3 ovarian): 3.32 µM; TGI (SK-OV-3 ovarian): 13.4 µM; GI50 (OVCAR-4 ovarian): 1.91 µM; TGI (OVCAR-4 ovarian): 4.28 µM; GI50 (RPMI-8226 leukemia): 2.03 µM; TGI (RPMI-8226 leukemia): 7.65 µM; GI50 (SNB-19 CNS): 6.8 µM; TGI (SNB-19 CNS): 24.3 µM; GI50 (HS 578T breast): 2.04 µM; TGI (HS 578T breast): 7.62 µM; GI50 (LOX IMVI melanoma): 0.171 µM; TGI (LOX IMVI melanoma): 0.326 µM; GI50 (NCI-H23 lung): 1.3 µM; TGI (NCI-H23 lung): 2.71 µM; GI50 (SK-MEL-5 melanoma): 3.6 µM; TGI (SK-MEL-5 melanoma): 14 µM; GI50 (NCI-H226 lung): 10.4 µM; TGI (NCI-H226 lung): 36.6 µM; GI50 (PC-3 prostate): 4.52 µM; TGI (PC-3 prostate): 23.7 µM; GI50 (HOP-92 NSCLC): 1.43 µM; TGI (HOP-92 NSCLC): 3 µM; GI50 (ACHN renal): 2.51 µM; TGI (ACHN renal): 7.1 µM; GI50 (SN12C renal): 5.89 µM; TGI (SN12C renal): 85 µM; GI50 (MDA-MB-231 breast): 2.88 µM; TGI (MDA-MB-231 breast): 7.82 µM; GI50 (TK-10 renal): 2.15 µM; TGI (TK-10 renal): 8.1 µM; GI50 (DU-145 prostate): 2.01 µM; TGI (DU-145 prostate): 6.16 µM; GI50 (BT-549 breast): 2.63 µM; TGI (BT-549 breast): 6.74 µM; GI50 (NCI-H522 lung): 0.211 µM; TGI (NCI-H522 lung): 0.44 µM; GI50 (IGROV1 ovarian): 0.501 µM; TGI (IGROV1 ovarian): 1.92 µM
